Like-named read-outs stand apart in the source and are kept apart here.

The target in this assay is T1, recombinant human ACC2 (Homo sapiens, UniProt O00763).
T1 construct: a cDNA encoding human ACC2 (27-2458) was cloned from human kidney cDNA library (Clontech); His-tag (N); made in house; host or cells: Sf-9 insect cells (Bac-to-Bac baculovirus)
The experiment in a line: Measurement of inhibitory activity on human ACC2 (MALDI-TOF MS, acetyl CoA to malonyl CoA conversion). It is filed as biochemical. The conditions noted are these: read-out: IC50.

The mark [1] stands for this setting: inhibition activity on human ACC2, untitled table (Table 81).
Setting [2] is: inhibition activity on human ACC2, Table 82.

T1 sequence (O00763 27-2458): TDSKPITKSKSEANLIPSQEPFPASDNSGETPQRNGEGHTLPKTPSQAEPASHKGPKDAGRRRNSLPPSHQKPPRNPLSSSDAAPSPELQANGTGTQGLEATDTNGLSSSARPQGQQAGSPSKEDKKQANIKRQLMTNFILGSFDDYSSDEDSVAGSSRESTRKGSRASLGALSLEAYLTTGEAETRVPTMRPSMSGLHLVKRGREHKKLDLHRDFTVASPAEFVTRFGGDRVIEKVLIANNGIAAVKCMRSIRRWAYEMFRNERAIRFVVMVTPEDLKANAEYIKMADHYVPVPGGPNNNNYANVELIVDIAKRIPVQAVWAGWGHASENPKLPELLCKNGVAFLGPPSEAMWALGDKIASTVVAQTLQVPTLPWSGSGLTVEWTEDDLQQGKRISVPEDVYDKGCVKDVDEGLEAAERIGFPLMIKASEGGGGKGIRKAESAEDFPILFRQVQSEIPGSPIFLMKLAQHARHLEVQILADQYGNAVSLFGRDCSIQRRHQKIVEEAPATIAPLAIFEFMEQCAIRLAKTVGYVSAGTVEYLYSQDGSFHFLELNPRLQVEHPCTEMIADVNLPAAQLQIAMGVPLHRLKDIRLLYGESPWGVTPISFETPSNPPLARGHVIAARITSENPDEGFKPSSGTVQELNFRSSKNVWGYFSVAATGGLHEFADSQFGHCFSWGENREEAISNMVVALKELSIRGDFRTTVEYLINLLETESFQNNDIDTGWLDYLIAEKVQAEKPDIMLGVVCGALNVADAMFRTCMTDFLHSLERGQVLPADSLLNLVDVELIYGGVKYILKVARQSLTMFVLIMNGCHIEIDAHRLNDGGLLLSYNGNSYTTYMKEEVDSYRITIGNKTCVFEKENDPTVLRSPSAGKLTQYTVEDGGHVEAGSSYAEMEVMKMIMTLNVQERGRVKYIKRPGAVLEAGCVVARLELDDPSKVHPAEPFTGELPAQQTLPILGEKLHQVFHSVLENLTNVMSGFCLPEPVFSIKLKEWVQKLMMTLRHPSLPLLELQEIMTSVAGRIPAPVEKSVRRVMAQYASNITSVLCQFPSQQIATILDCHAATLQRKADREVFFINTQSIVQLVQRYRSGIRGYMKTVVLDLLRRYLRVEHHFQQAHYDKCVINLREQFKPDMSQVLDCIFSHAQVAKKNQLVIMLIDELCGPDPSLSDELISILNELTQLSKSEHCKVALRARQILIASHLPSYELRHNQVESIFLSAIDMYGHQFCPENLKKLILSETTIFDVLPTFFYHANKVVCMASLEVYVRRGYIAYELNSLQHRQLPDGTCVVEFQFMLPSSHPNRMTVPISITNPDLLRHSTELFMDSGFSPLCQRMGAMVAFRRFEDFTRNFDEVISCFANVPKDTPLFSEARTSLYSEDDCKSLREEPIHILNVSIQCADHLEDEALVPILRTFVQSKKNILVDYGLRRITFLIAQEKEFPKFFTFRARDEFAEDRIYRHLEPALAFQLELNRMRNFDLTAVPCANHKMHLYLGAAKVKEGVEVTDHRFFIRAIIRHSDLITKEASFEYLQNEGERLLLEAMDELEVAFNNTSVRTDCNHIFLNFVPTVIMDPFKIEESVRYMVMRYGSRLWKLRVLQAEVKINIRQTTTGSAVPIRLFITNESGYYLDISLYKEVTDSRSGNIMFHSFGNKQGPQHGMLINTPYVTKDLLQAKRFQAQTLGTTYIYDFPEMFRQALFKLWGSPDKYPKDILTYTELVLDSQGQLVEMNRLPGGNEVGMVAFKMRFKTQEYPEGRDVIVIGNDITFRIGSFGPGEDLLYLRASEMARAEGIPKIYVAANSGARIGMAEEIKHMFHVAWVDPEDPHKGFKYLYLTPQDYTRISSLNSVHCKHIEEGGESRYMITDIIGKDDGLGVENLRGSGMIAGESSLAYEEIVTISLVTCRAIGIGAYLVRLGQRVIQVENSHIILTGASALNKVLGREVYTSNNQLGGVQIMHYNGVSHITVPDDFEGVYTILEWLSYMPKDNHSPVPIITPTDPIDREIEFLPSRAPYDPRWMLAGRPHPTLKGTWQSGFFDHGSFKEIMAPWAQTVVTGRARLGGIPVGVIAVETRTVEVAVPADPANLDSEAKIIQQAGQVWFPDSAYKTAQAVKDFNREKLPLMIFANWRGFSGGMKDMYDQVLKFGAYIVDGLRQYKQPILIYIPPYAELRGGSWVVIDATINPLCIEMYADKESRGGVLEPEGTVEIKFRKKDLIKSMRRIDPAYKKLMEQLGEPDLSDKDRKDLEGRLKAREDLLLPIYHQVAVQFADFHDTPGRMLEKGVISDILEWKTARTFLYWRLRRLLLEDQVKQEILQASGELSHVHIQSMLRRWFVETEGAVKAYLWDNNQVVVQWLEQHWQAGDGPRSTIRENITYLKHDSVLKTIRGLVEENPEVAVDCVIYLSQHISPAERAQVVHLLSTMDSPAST

On to `CC(=O)N[C@@H](C)/C=C/c1ccc(Oc2ccc(-c3ncco3)cc2Cl)nc1` [Compound I-268], for which the IC50 – broadly, the concentration that gives 50% inhibition – under setting [1] turned out to be 110 nM.

As for `CCCc1ccc(Oc2ccc(/C=C/[C@H](C)NC(C)=O)cn2)cn1` [Compound I-269], the IC50 under setting [1] was found to be 120 nM.

On to `COc1ccc(Oc2ccc(/C=C(\C)C(C)NC(C)=O)cn2)c(Cl)c1` (stereo not shown) [Compound I-270], for which the half-inhibitory concentration (IC50) under setting [1] turned out to be 390 nM.

Turning to `CCOc1ccc(Oc2ccc(/C=C(\C)C(C)NC(C)=O)cn2)c(Cl)c1` (stereo not shown) [Compound I-271], the IC50 under setting [1] came out at 79 nM.

For `CC(=O)N[C@@H](C)/C=C/c1ccc(Oc2ccc(N3CCCC3=O)cc2Cl)nc1` [Compound I-272], the IC50 under setting [1] turned out to be 450 nM.

Turning to `CC(=O)N[C@@H](C)/C=C/c1ccc(Oc2ccc(Cl)cc2Cl)nc1` [Compound I-273], the IC50 under setting [1] was determined as 99 nM.

Consider `CC(=O)N[C@@H](C)/C=C/c1cnc(Oc2ccc(Br)c(Cl)c2)nc1` [Compound I-274], for which, under setting [1], the IC50 was determined as 350 nM.

Regarding `CC#Cc1ccc(Oc2ccc(/C=C/[C@H](C)NC(C)=O)cn2)c(Cl)c1` [Compound I-275], under setting [1], the IC50 turned out to be 17 nM.

Turning to `CCOc1cc(F)cc(Oc2ccc(/C=C/[C@H](C)NC(C)=O)cn2)c1` [Compound I-276], under setting [1], the 50% inhibitory concentration (IC50) was 150 nM.

For the compound `CC(=O)N[C@@H](C)/C=C/c1ccc(Oc2cc(F)cc(OC(C)C)c2)nc1` [Compound I-277], the IC50 under setting [1] amounted to 230 nM.

Turning to `CCOc1ccc(F)c(Oc2ccc(/C=C/[C@H](C)NC(C)=O)cn2)c1` [Compound I-278], the half-inhibitory concentration (IC50) under setting [1] was 79 nM.

On to `CC(=O)N[C@@H](C)/C=C/c1ccc(Oc2cc(OC(C)C)ccc2F)nc1` [Compound I-279], for which, under setting [1], the IC50 was determined as 59 nM.

In the case of `CCOc1cc(Oc2ccc(/C=C/[C@H](C)NC(C)=O)cn2)ccc1F` [Compound I-280], under setting [1], the concentration for half-maximal inhibition (IC50) stood at 170 nM.

`CC(=O)N[C@@H](C)/C=C/c1ccc(Oc2ccc(F)c(OC(C)C)c2)nc1` [Compound I-281]: the IC50 under setting [1] came to 130 nM.

With `CC(=O)NC(C)/C(C)=C/c1ccc(Oc2ccc(OCC3CC3)cc2Cl)nc1` (stereo not shown) [Compound I-282], the concentration for half-maximal inhibition (IC50) under setting [1] was 13 nM.

For `CC(=O)NC(C)/C(C)=C/c1ccc(Oc2ccc(O)cc2Cl)nc1` (stereo not shown) [Compound I-283], the IC50 under setting [1] was 3200 nM.

Take `CC(=O)N[C@@H](C)/C=C/c1cnc(Oc2ccc(NC(=O)CC(C)C)c(Cl)c2)nc1` [Compound I-284]: the IC50 under setting [1] is 860 nM.

Take `CC(=O)N[C@@H](C)/C=C/c1cnc(Oc2ccc(NC3CCCC3)c(Cl)c2)nc1` [Compound I-285]: the IC50 under setting [1] was found to be 96 nM.

With `CCOc1ccc(Oc2cnc(/C=C/[C@H](C)NC(C)=O)cn2)c(Cl)c1` [Compound I-286], the IC50 under setting [1] amounted to 48 nM.

`CC(=O)N[C@@H](C)/C=C/c1ccc(Oc2ccc(CCC3CC3)cc2Cl)nc1` [Compound I-287]: the IC50 under setting [1] amounted to 18 nM.

As for `CCN(CC)c1ccc(Oc2ccc(/C=C/[C@H](C)NC(C)=O)cn2)c(Cl)c1` [Compound I-288], the IC50 under setting [1] was found to be 36 nM.

For `CC(=O)N[C@@H](C)/C=C/c1ccc(Oc2ccc(Br)c(Cl)c2)nc1` [Compound I-289], under setting [1], the IC50 stood at 28 nM.

With `CC(=O)NC(C)(C)/C(C)=C/c1ccc(Oc2ccc(OCC3CC3)cc2Cl)nc1` [Compound I-290], under setting [1], the IC50 was determined as 600 nM.

Regarding `CC(=O)N[C@@H](C)/C=C/c1cnc(Oc2ccc(OCC3CC3)c(Cl)c2)cn1` [Compound I-291], the IC50 under setting [1] was 18 nM.

As for `CC(=O)N[C@@H](C)/C=C/c1cnn(Cc2cc(F)c(OCC3CC3)cc2F)c1` [Compound I-292], under setting [1], the IC50 is 1600 nM.

`CC(=O)N[C@@H](C)/C=C/c1ccc(Oc2cncc(OCC3CC3)c2)nc1` [Compound I-293]: the IC50 under setting [1] is 1300 nM.

Consider `CCCc1ncc(Oc2ccc(/C=C/[C@H](C)NC(C)=O)cn2)cc1Cl` [Compound I-294], for which, under setting [1], the IC50 was found to be 150 nM.

For the compound `CC/C(=C\c1ccc(Oc2cnc(OCC3CC3)cc2Cl)nc1)C(C)NC(C)=O` (stereo not shown) [Compound I-295], the IC50 under setting [1] was 2800 nM.

Consider `COCCOc1ccc(Oc2ccc(/C=C/[C@H](C)NC(C)=O)cn2)c(Cl)c1` [Compound I-296], for which the half-maximal inhibitory concentration (IC50) under setting [1] stood at 110 nM.

In the case of `CC(=O)N[C@@H](C)/C=C/c1ccc(Oc2ccc(C3CC3)c(Cl)c2)nc1` [Compound I-298], the IC50 under setting [1] is 58 nM.

Take `CCOc1ccc(Oc2cnc(/C=C/[C@H](C)NC(C)=O)cn2)cc1Cl` [Compound I-299]: the concentration for half-maximal inhibition (IC50) under setting [1] is 38 nM.

For `CC(=O)N[C@@H](C)/C=C/c1ccc(Oc2cncc(OC(C)C)c2)nc1` [Compound I-301], the IC50 under setting [1] came out at 1900 nM.

Take `CCCc1cncc(Oc2ccc(/C=C/[C@H](C)NC(C)=O)cn2)c1` [Compound I-302]: the IC50 under setting [1] is 510 nM.

Regarding `CC(=O)N[C@@H](C)/C=C/c1ccc(Oc2ccc(OCCOC3CCCCO3)cc2Cl)nc1` (stereo partly shown) [Compound I-303], under setting [1], the IC50 came to 630 nM.

As to `CC(=O)N[C@@H](C)/C=C/c1ccc(Oc2ccc(OCCO)cc2Cl)nc1` [Compound I-304], under setting [1], the IC50 was 1400 nM.

In the case of `CCCc1ccc(Oc2ccc(/C=C/[C@H](C)NC(C)=O)cn2)cc1Cl` [Compound I-305], the IC50 under setting [1] amounted to 11 nM.

On to `CCCc1ccc(Oc2ccc(/C=C/[C@H](C)NC(C)=O)cn2)cc1` [Compound I-306], for which the IC50 under setting [1] is 24 nM.

Consider `CCNC(=O)c1cc(C(=O)N[C@@H](C)/C=C/c2cnn(Cc3ccc(Oc4ccccc4)cc3)c2)ccn1` [Compound I-307], for which the IC50 under setting [1] is 48 nM.

Regarding `CCNC(=O)c1cc(C(=O)N[C@@H](C)/C=C/c2cnn(Cc3ccc(OC(F)(F)F)cc3)c2)ccn1` [Compound I-308], the half-maximal inhibitory concentration (IC50) under setting [1] turned out to be 480 nM.

As for `CCNC(=O)c1cc(C(=O)N[C@@H](C)/C=C/c2cnn(Cc3ccc(F)c(C(F)(F)F)c3)c2)ccn1` [Compound I-309], under setting [1], the IC50 is 2800 nM.

For `CCNC(=O)c1cc(C(=O)N[C@@H](C)/C=C/c2cnn(Cc3ccc(Cl)c(Cl)c3)c2)ccn1` [Compound I-310], the IC50 under setting [1] is 1300 nM.

For `CCNC(=O)c1cc(C(=O)N[C@@H](C)/C=C/c2cnn(Cc3ccc(C(C)C)cc3)c2)ccn1` [Compound I-312], the IC50 under setting [1] is 570 nM.

As for `CCNC(=O)c1cc(C(=O)N[C@@H](C)/C=C/c2cnn(Cc3ccc(F)c(Cl)c3)c2)ccn1` [Compound I-314], the IC50 under setting [1] was determined as 960 nM.

Regarding `CCNC(=O)c1cc(C(=O)N[C@@H](C)/C=C/c2cnn(Cc3c(C)cc(C)cc3C)c2)ccn1` [Compound I-315], under setting [1], the IC50 amounted to 3900 nM.

Turning to `CCNC(=O)c1cc(C(=O)N[C@@H](C)/C=C/c2cnn(Cc3ccc(OC)cc3Cl)c2)ccn1` [Compound I-317], the half-maximal inhibitory concentration (IC50) under setting [1] turned out to be 350 nM.

`CCNC(=O)c1cc(C(=O)N[C@@H](C)/C=C/c2cnn(Cc3ccc(OCC4CC4)cc3F)c2)ccn1` [Compound I-318]: the IC50 under setting [2] was found to be 67 nM.

Turning to `CCNC(=O)c1cc(C(=O)N[C@@H](C)/C=C/c2cnn(Cc3c(F)cc(OCC4CC4)cc3F)c2)ccn1` [Compound I-319], under setting [2], the IC50 is 51 nM.

As to `CCNC(=O)c1cc(C(=O)N[C@@H](C)/C=C/c2cnn(Cc3c(Cl)cc(OCC4CC4)cc3Cl)c2)ccn1` [Compound I-321], the IC50 under setting [2] turned out to be 29 nM.

With `CCCc1ccc(Oc2ccc(/C=C/[C@H](C)NC(C)=O)cn2)c(C)n1` [Compound I-322], under setting [2], the IC50 was 490 nM.

With `CCCc1cc(C)c(Oc2ccc(/C=C/[C@H](C)NC(C)=O)cn2)cn1` [Compound I-323], the IC50 under setting [2] is 960 nM.

For `CCCc1ccc(Oc2ncc(/C=C/[C@H](C)NC(C)=O)cn2)cc1Cl` [Compound I-324], the IC50 under setting [2] was 170 nM.

Regarding `CC(=O)N[C@@H](C)/C=C/c1ccc(Oc2ccc(-c3ccccn3)cc2Cl)nc1` [Compound I-325], the IC50 under setting [2] was 120 nM.

As for `CC(=O)N[C@@H](C)/C=C/c1ccc(Oc2ccc(-c3cccnc3)cc2Cl)nc1` [Compound I-326], under setting [2], the IC50 was determined as 440 nM.

On to `CC(=O)N[C@@H](C)/C=C/c1ccc(Oc2ccc(C(C)=O)cc2Cl)nc1` [Compound I-327], for which, under setting [2], the IC50 is 340 nM.

Consider `CC(=O)N[C@@H](C)/C=C/c1ccc(Oc2ccc(C(C)(F)F)cc2Cl)nc1` [Compound I-328], for which the half-inhibitory concentration (IC50) under setting [2] turned out to be 35 nM.

Regarding `CC(=O)N[C@@H](C)/C=C/c1ccc(Oc2ccc(C(C)O)cc2Cl)nc1` (stereo partly shown) [Compound I-329], under setting [2], the IC50 amounted to 1100 nM.

Take `CCCc1cccc(Oc2ccc(/C=C/[C@H](C)NC(C)=O)cn2)n1` [Compound I-330]: the concentration for half-maximal inhibition (IC50) under setting [2] worked out at 3900 nM.

`CC(=O)N[C@@H](C)/C=C/c1ccc(Oc2ccc(OS(=O)(=O)C(F)(F)F)cc2Cl)nc1` [Compound I-331]: the IC50 under setting [2] amounted to 130 nM.

Regarding `CC(=O)N[C@@H](C)/C=C/c1ccc(Oc2ccc(C(C)F)cc2Cl)nc1` (stereo partly shown) [Compound I-332], the IC50 under setting [2] worked out at 92 nM.

On to `CO/N=C(\C)c1ccc(Oc2ccc(/C=C/[C@H](C)NC(C)=O)cn2)c(Cl)c1` [Compound I-333], for which, under setting [2], the IC50 worked out at 180 nM.

`CCOc1ccc(Oc2ncc(/C=C/[C@H](C)NC(C)=O)cc2Cl)c(Cl)c1` [Compound I-334]: the IC50 under setting [2] came out at 47 nM.

For the compound `CC(=O)N[C@@H](C)/C=C/c1cnc(Oc2ccc(OCC3CC3)cc2Cl)c(Cl)c1` [Compound I-335], under setting [2], the IC50 was 15 nM.

On to `CCCc1ccc(Oc2ccc(/C=C/[C@H](C)NC(C)=O)cn2)nc1` [Compound I-336], for which the IC50 under setting [2] worked out at 2000 nM.

As to `CCCCc1ccc(Oc2ccc(/C=C/[C@H](C)NC(C)=O)cn2)c(Cl)c1` [Compound I-337], the IC50 under setting [2] worked out at 23 nM.

For `CC(=O)N[C@@H](C)/C=C/c1ccc(Oc2ccc(Cl)c(Cl)c2)nc1` [Compound I-338], under setting [2], the IC50 came to 33 nM.

Consider `CCc1ccc(Oc2ccc(/C=C/[C@H](C)NC(C)=O)cn2)c(Cl)c1` [Compound I-339], for which the IC50 under setting [2] came out at 91 nM.

`CC(=O)N[C@@H](C)/C=C/c1cnc(Oc2ccc(OCC3CC3)cc2Cl)n1C` [Compound I-341]: the IC50 under setting [2] was 450 nM.

In the case of `CC(=O)N[C@@H](C)/C=C/c1ccc(Oc2ccc(-c3ccccc3C)cc2Cl)nc1` [Compound I-342], the half-maximal inhibitory concentration (IC50) under setting [2] stood at 120 nM.

Take `CC(=O)N[C@@H](C)/C=C/c1ccc(Oc2ccc(-c3cccc(C)c3)cc2Cl)nc1` [Compound I-343]: under setting [2], the IC50 stood at 46 nM.

Regarding `CC(=O)N[C@@H](C)/C=C/c1ccc(Oc2ccc(-c3ccc(C)cc3)cc2Cl)nc1` [Compound I-344], the IC50 under setting [2] turned out to be 51 nM.

The record behind these values is US20150246938A1, “NOVEL OLEFIN DERIVATIVE” (SHIONOGI & CO., LTD., priority 2011, published 2015).
